Experimental data as given in US11981658B2, “Substituted aminopyridine compounds as EGFR inhibitors” (YUHAN CORPORATION, priority 2021, dated 2024).
Read-outs that look alike come from different tables or passages of the source.

Experiments:
[1] = molecular target: EGFR L858R/C797S (Homo sapiens, UniProt P00533, C797S/L858R); test: Biochemical EGFR kinase inhibition assay (Lance Ultra TR-FRET), double mutant L858R/C797S
Outline: (§1)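 Enzyme reactions lasted 1 hour at room temperature with test compounds between 0.003 and 10 μM, followed by 10 mM EDTA quench.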

[2] = molecular target: EGFR Del19/T790M/C797S (Homo sapiens, UniProt P00533, C797S/DEL746-750/T790M); test: Biochemical EGFR kinase inhibition assay (Lance Ultra TR-FRET), triple mutant del19/T790M/C797S
EGFR Del19/T790M/C797S, sequence (P00533 with tags, fused parts or gaps DEL746-750/T790M/C797S): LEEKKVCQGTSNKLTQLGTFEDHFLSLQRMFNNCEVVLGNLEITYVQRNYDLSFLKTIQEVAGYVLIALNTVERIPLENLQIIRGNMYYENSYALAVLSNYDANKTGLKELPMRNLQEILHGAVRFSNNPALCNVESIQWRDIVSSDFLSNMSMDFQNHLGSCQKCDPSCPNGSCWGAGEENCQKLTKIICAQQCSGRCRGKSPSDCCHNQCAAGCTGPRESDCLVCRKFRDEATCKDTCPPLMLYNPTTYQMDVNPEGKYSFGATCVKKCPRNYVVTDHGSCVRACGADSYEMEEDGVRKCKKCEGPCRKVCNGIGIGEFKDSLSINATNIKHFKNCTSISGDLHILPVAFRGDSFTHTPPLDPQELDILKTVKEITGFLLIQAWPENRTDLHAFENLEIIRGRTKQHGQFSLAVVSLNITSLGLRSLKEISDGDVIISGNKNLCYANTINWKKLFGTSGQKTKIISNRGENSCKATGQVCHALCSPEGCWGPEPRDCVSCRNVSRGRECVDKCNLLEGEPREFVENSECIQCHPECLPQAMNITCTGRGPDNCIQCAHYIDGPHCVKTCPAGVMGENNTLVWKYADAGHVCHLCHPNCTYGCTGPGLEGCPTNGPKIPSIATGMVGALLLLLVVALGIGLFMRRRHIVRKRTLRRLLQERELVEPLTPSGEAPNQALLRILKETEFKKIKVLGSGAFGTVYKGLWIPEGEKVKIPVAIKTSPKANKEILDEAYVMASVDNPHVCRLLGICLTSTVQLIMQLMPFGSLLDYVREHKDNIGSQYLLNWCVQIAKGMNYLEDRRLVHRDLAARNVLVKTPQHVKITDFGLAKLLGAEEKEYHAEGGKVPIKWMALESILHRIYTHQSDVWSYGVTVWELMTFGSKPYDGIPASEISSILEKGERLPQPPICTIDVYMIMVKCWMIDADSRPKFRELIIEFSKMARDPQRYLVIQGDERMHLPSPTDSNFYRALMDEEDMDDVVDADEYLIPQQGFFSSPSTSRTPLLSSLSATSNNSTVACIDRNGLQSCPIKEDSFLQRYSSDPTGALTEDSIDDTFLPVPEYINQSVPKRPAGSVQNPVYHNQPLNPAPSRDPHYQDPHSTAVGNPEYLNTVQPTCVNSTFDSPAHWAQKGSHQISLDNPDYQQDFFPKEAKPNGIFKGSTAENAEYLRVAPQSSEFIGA
Outline: as §1

[3] = molecular target: EGFR Del19/C797S (Homo sapiens, UniProt P00533, C797S/DEL746-750); test: Biochemical EGFR kinase inhibition assay (Lance Ultra TR-FRET), double mutant del19/C797S
EGFR Del19/C797S, sequence (P00533 with tags, fused parts or gaps DEL746-750/C797S): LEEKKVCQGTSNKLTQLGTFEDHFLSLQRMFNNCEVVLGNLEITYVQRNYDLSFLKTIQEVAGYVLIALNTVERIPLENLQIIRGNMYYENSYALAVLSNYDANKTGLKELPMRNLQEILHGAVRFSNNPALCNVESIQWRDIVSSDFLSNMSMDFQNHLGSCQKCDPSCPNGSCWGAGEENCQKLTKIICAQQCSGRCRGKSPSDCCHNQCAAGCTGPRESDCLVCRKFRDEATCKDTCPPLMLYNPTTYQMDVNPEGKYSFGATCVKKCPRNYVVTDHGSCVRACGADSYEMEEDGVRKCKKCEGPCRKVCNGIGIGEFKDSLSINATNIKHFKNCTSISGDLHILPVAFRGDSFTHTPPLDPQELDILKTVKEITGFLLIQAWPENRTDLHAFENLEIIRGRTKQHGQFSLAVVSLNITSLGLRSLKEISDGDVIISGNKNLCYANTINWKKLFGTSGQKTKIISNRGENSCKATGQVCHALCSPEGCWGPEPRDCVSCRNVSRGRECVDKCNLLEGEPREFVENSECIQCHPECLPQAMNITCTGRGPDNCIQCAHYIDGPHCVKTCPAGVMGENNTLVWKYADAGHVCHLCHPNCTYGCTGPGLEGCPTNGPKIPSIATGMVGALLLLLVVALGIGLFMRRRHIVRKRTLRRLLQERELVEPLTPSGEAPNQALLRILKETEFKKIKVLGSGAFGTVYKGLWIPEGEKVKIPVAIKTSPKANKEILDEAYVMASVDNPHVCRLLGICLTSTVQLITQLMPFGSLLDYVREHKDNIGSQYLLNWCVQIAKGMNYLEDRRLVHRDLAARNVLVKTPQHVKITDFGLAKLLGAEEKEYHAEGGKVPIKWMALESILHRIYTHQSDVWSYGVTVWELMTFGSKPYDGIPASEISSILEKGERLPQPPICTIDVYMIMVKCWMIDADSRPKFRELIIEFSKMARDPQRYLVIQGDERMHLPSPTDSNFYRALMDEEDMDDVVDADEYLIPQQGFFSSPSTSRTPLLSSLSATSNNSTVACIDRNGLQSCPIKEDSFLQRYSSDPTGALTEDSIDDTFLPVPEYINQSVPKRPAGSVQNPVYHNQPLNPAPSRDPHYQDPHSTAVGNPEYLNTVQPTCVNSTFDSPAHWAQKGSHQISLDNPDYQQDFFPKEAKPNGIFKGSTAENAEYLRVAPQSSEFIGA
Outline: as §1

[4] = molecular target: EGFR wildtype (WT) (Homo sapiens, UniProt P00533); test: Biochemical EGFR kinase inhibition assay (Lance Ultra TR-FRET), wildtype
EGFR wildtype (WT), sequence (P00533 25-1210): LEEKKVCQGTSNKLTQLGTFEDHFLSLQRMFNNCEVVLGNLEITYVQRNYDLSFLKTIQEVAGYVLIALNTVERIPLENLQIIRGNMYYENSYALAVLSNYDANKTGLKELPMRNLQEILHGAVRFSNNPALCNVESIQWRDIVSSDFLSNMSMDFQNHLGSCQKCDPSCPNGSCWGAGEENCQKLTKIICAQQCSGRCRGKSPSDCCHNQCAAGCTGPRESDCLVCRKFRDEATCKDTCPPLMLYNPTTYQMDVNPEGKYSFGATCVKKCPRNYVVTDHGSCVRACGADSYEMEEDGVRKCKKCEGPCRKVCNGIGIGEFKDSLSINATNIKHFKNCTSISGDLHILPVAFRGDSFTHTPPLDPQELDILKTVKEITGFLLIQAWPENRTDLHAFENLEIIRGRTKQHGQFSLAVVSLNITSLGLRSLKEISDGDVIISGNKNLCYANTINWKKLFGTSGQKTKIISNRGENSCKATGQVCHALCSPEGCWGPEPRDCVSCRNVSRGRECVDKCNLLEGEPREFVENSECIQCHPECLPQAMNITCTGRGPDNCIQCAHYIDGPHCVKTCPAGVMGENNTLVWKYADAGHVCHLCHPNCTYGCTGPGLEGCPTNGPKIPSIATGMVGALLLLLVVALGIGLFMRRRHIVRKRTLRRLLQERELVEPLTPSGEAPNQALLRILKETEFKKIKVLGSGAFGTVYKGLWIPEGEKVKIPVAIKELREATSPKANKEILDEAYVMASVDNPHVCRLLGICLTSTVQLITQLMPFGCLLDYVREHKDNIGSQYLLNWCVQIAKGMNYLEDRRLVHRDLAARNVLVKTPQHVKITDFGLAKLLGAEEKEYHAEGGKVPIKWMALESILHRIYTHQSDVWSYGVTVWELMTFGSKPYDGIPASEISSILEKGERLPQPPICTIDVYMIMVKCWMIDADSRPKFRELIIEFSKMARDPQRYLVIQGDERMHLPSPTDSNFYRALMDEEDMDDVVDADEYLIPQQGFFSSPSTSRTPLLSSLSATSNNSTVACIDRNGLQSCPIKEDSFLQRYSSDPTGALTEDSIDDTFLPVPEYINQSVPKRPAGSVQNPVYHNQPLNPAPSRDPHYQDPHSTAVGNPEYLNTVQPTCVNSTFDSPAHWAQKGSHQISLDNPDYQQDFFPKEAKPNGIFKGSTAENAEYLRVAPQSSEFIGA
Outline: as §1

[5] = molecular target: EGFR L858R/T790M/C797S (Homo sapiens, UniProt P00533, C797S/L858R/T790M); test: Biochemical EGFR kinase inhibition assay (Lance Ultra TR-FRET), triple mutant L858R/T790M/C797S
Outline: as §1

[6] = ATP at Km, read-out: IC50 L858R/C797S (nM), Km ATP
[7] = IC50 L858R/C797S (nM), 100 μM ATP
[8] = ATP at Km, read-out: IC50 Del19/T790M/C797S (nM), Km ATP
[9] = IC50 Del19/T790M/C797S (nM), 100 μM ATP
[10] = ATP at Km, read-out: IC50 Del19/C797S (nM), Km ATP
[11] = IC50 Del19/C797S (nM), 100 μM ATP
[12] = ATP at Km, read-out: IC50 WT (nM), Km ATP
[13] = ATP at Km, read-out: IC50 L858R/T790M/C797S (nM), Km ATP
[14] = IC50 L858R/T790M/C797S (nM), 100 μM ATP

EGFR L858R/C797S, sequence (P00533 25-1210 C797S/L858R): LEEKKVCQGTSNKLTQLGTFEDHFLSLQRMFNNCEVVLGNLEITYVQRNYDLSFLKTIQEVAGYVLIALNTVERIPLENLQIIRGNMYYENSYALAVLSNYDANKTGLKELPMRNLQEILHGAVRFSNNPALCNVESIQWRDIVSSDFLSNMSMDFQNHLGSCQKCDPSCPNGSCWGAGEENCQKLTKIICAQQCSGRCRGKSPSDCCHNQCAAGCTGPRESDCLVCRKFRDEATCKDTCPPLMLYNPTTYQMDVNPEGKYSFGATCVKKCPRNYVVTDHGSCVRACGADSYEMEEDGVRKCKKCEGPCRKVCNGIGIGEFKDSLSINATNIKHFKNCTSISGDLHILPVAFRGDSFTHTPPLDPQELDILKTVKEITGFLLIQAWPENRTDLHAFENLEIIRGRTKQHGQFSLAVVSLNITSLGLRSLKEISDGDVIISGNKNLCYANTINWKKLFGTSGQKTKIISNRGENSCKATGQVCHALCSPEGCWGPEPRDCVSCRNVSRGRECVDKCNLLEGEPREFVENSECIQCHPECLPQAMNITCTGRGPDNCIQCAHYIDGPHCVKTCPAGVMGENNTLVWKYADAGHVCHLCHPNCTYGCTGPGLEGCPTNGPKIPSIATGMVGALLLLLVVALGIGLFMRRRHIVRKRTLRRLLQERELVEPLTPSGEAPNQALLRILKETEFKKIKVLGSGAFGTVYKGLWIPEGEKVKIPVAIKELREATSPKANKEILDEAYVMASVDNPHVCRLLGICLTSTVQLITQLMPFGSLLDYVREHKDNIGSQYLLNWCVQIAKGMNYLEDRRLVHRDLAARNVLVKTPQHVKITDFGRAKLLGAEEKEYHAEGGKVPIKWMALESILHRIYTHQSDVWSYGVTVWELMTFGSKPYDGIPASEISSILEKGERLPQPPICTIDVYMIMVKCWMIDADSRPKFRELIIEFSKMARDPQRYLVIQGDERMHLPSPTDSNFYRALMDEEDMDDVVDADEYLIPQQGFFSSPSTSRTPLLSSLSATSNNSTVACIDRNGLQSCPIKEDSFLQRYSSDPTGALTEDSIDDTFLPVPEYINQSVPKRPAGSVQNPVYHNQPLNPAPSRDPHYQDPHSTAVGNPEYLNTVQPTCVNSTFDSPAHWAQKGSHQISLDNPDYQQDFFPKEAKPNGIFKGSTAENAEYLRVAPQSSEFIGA

| Compound | IC50 [1, 6] [nM] | IC50 [1, 7] [nM] | IC50 [2, 8] [nM] | IC50 [2, 9] [nM] | IC50 [3, 10] [nM] | IC50 [3, 11] [nM] | IC50 [4, 12] [nM] | IC50 ([4]; IC50 WT (nM), 100 μM ATP) [nM] | IC50 [5, 13] [nM] | IC50 [5, 14] [nM] | IC50 ([1]; read-out: IC50 L858R/C797S (nM), 100 μM ATP) [nM] | IC50 ([2]; read-out: IC50 Del19/T790M/C797S (nM), 100 μM ATP) [nM] | IC50 ([3]; read-out: IC50 Del19/C797S (nM), 100 μM ATP) [nM] | IC50 ([4]; read-out: IC50 WT (nM), 100 μM ATP) [nM] | IC50 ([5]; read-out: IC50 L858R/T790M/C797S (nM), 100 μM ATP) [nM] |
| --- | --- | --- | --- | --- | --- | --- | --- | --- | --- | --- | --- | --- | --- | --- | --- |
| Cn1cc(C#Cc2cnc(Nc3ccnc(-c4cnn(S(=O)(=O)C5CC5)c4)n3)cc2N2CC3(CCNCC3)C2)cn1 [Example 155, 2-(1-(Cyclopropylsulfonyl)-1H-pyrazol-4-yl)-N-(5-((1-methyl-1H-pyrazol-4-yl)ethynyl)-4-(2,7-diazaspiro[3.5]nonan-2-yl)pyridin-2-yl)pyrimidin-4-amine] | 19.4 | 309 | 0.6 | 0.6 | 20.8 | 34.3 | 90.6 | > 10000 | 0.5 | 1.9 |  |  |  |  |  |
| Cn1cc(C#Cc2cnc(Nc3ccnc(-c4cnn(S(=O)(=O)C5CC5)c4)n3)cc2N2CCC3(CCNC3)CC2)cn1 [Example 156, 2-(1-(Cyclopropylsulfonyl)-1H-pyrazol-4-yl)-N-(5-((1-methyl-1H-pyrazol-4-yl)ethynyl)-4-(2,8-diazaspiro[4.5]decan-8-yl)pyridin-2-yl)pyrimidin-4-amine] | 1.2 | 9 | 0.1 | 0.1 | 0.3 | 0.4 | 2.6 | 2100 | 0.04 | 0.1 |  |  |  |  |  |
| O=S(=O)(C1CC1)n1cc(-c2nccc(Nc3cc(N[C@H]4CC[C@@H](O)CC4)c(C#Cc4ccc(CN5CCOCC5)cc4)cn3)n2)cn1 [Example 157, (1s,4s)-4-((2-((2-(1-(Cyclopropylsulfonyl)-1H-pyrazol-4-yl)pyrimidin-4-yl)amino)-5-((4-(morpholinomethyl)phenyl)ethynyl)pyridin-4-yl)amino)cyclohexan-1-ol] | 3.3 | 40.8 | 3.3 | 3.6 | 3.7 | 10.6 | 127 | > 10000 | 1.7 | 4.6 |  |  |  |  |  |
| C[C@]1(O)CC[C@@H](Nc2cc(Nc3ccnc(-c4cnn(S(=O)(=O)C5CC5)c4)n3)ncc2C#Cc2ccc(CN3CCOCC3)cc2)CC1 [Example 158, (1s,4s)-4-((2-((2-(1-(Cyclopropylsulfonyl)-1H-pyrazol-4-yl)pyrimidin-4-yl)amino)-5-((4-(morpholinomethyl)phenyl)ethynyl)pyridin-4-yl)amino)-1-methylcyclohexan-1-ol] | 15.3 |  | 6.2 |  | 18.3 |  | 523 |  | 2.5 |  | 809 | 6.8 | 131 | > 10000 | 8.4 |
| O=S(=O)(C1CC1)n1cc(-c2nccc(Nc3cc(N[C@H]4CCC[C@@H](O)C4)c(C#Cc4ccc(CN5CCOCC5)cc4)cn3)n2)cn1 [Example 159, (1R,3S)-3-((2-((2-(1-(Cyclopropylsulfonyl)-1H-pyrazol-4-yl)pyrimidin-4-yl)amino)-5-((4-(morpholinomethyl)phenyl)ethynyl)pyridin-4-yl)amino)cyclohexan-1-ol] | 7.4 | 98.5 | 8.3 | 10.6 | 7.7 | 21.7 | 85.5 | > 10000 | 3.4 | 9.6 |  |  |  |  |  |
| O=S(=O)(C1CC1)n1cc(-c2nccc(Nc3cc(N[C@@H]4CCC[C@H](O)C4)c(C#Cc4ccc(CN5CCOCC5)cc4)cn3)n2)cn1 [Example 160, (1S,3R)-3-((2-((2-(1-(Cyclopropylsulfonyl)-1H-pyrazol-4-yl)pyrimidin-4-yl)amino)-5-((4-(morpholinomethyl)phenyl)ethynyl)pyridin-4-yl)amino)cyclohexan-1-ol] | 3.8 | 65.6 | 5.7 | 7.3 | 4.1 | 10.1 | 64.8 | > 10000 | 2.5 | 6.2 |  |  |  |  |  |
